Biological target: 3-phosphoinositide-dependent protein kinase 1 (PDPK1) (Homo sapiens) (UniProt O15530)
Assay: Inhibition of PDK1

IC50: > 10 µM
SMILES: CCOC(=O)c1cnn2c(-c3cccc(NC(=O)c4cccc(C(F)(F)F)c4)c3)ccnc12 [ethyl 7-(3-(3-(trifluoromethyl)benzamido)phenyl)pyrazolo[1,5-a]pyrimidine-3-carboxylate]

Reference: BindingDB's records for doi:10.1016/j.bmcl.2009.03.129 (Wyeth Research, 2009)
